Measurements as given in patent publication US20230174507A1, “IMIDAZOLE 3-OXIDE DERIVATIVE BASED ACSS2 INHIBITORS AND METHODS OF USE THEREOF” (METABOMED LTD., priority 2020, published 2023).

Columns and labels:
human ACSS2 protein = target: T1, human ACSS2 protein (Homo sapiens, UniProt Q9NR19); experiment: ACSS2 cell-free activity assay (pyrophosphatase-coupled, Biomol green); details: 10 nM human ACSS2, 90 minutes at 37 C, absorbance at 620 nm; read-out: ACSS2 Biochemical IC50
T1 construct: purchased OriGene Technologies, Inc
Outline: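 10 nM human ACSS2 incubated 90 min at 37 C with compound, 300 μM ATP, 10 μM CoA, 5 mM NaAc in pH 7.5 Hepes buffer with 0.5 U/ml pyrophosphatase. Released phosphate detected with Biomol Green at 620 nm; IC50 by non-linear regression constrained to 0% and 100%.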

human ACSS1 protein = target: T2, human ACSS1 protein (Homo sapiens, UniProt Q9NUB1); experiment: ACSS1 cell-free activity assay (pyrophosphatase-coupled, Biomol green); assay type: biochemical; details: 5 nM human ACSS1, 30 minutes at room temperature, absorbance at 620 nm
T2 construct: purchased MyBioSource
T2 sequence (Q9NUB1 38-689): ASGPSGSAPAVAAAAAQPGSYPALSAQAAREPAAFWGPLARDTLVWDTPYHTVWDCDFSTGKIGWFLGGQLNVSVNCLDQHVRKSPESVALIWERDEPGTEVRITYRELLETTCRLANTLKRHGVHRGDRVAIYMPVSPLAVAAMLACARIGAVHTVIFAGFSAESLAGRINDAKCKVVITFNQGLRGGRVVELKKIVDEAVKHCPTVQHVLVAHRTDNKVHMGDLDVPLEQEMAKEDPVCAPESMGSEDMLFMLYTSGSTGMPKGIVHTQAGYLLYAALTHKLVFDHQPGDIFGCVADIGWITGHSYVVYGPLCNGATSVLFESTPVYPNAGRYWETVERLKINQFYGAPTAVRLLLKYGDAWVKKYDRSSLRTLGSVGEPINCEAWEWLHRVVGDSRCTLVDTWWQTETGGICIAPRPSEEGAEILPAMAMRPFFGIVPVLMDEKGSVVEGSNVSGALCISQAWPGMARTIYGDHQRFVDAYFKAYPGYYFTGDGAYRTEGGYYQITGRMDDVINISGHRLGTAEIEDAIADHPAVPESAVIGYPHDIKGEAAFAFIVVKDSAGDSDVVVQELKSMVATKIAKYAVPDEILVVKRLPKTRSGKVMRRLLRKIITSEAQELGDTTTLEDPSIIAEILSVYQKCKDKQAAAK
Outline: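 5 nM human ACSS1 incubated 30 min at RT with compound in pH 7.5 Hepes buffer with 15 μM CoA, 5 mM acetate, 300 μM ATP, 2 mM MgCl2 and pyrophosphatase. Released phosphate detected with Biomol Green (30 min), absorbance 620 nm. IC50 from constrained non-linear regression.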

[1] = target: T3, ACSS2 in MDA-MB-468 cells (Homo sapiens, UniProt Q9NR19); experiment: Cellular fatty-acid IC50: 13C-acetate incorporation into fatty acids (palmitate), LC-MS; assay type: cell-based; details: hypoxic conditions (1% O2), 75% charcoal stripped serum, 5 hours, 13C-acetate into palmitate, read-out: Cellular Fatty-acid IC50 High Serum MDA468
T3 construct: endogenous in cells; host or cells: MDA-MB-468 cells, hypoxia (1% O2)
Outline: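 MDA-MB-468 cells under hypoxia (1% O2) treated 5 h with compound (0.000512-1000 nM) in medium with 75% charcoal-stripped serum and 0.5 mM 13C-acetate. 13C-palmitate quantified by LC-MS (negative ion, RSIM). IC50 from inhibition versus no-compound control, background-subtracted, constrained 0–100% nonlinear fit.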

T1 sequence (Q9NR19 whole entry): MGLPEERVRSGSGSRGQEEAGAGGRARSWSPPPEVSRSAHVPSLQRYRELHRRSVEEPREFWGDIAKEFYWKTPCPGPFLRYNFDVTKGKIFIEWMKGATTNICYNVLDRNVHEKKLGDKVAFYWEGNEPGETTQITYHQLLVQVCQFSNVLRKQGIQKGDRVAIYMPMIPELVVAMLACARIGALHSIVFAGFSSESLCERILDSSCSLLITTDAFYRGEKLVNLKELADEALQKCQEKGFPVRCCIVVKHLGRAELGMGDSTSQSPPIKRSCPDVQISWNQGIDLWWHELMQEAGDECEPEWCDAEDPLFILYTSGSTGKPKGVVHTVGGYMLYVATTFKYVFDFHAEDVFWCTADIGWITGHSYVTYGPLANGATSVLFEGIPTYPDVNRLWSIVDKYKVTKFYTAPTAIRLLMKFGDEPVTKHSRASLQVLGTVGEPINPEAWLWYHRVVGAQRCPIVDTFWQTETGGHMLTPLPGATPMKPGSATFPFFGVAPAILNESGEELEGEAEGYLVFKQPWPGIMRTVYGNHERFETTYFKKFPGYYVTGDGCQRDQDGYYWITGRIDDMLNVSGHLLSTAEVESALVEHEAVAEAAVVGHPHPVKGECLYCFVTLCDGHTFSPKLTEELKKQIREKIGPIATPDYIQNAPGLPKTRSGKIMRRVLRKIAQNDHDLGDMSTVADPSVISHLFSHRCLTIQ
T3 sequence (Q9NR19 whole entry): as above

Cc1cccc(C)c1-c1cc(-c2[nH]c(C)c(C(=O)Nc3cccc(C(F)(F)C4CC4)c3)[n+]2[O-])ccc1OC(F)F [Compound 113, N-[3-[cyclopropyl(difluoro)methyl]phenyl]-2-[4-(difluoromethoxy)-3-(2,6-dimethylphenyl)phenyl]-5-methyl-3-oxido-1H-imidazol-3-ium-4-carboxamide]
IC50 (human ACSS2 protein): < 1 nM | ACSS1 Biochemical IC50 (nM) (human ACSS1 protein): Inactive | IC50 [1]: 20 to 50 nM

COc1ccc(-c2[nH]c(C)c(C(=O)Nc3cccc(-c4ncon4)c3)[n+]2[O-])cc1-c1c(C)cccc1C [Compound 190, 4-((3-(1,2,4-oxadiazol-3-yl)phenyl)carbamoyl)-2-(6-methoxy-2′,6′-dimethyl-[1,1′-biphenyl]-3-yl)-5-methyl-1H-imidazole 3-oxide]
IC50 (human ACSS2 protein): < 1 nM | ACSS1 Biochemical IC50 (nM) (human ACSS1 protein): Inactive | IC50 [1]: < 20 nM

COc1ccc(-c2[nH]c(C)c(C(=O)Nc3cccc(C(C)(F)F)c3)[n+]2[O-])cc1-c1c(C)cccc1C [Compound 120, 4-((3-(1,1-difluoroethyl)phenyl)carbamoyl)-2-(6-methoxy-2′,6′-dimethyl-[1,1′-biphenyl]-3-yl)-5-methyl-1H-imidazole 3-oxide]
IC50 (human ACSS2 protein): < 1 nM | ACSS1 Biochemical IC50 (nM) (human ACSS1 protein): Inactive | IC50 [1]: < 20 nM

COc1ccc(-c2[nH]c(C)c(C(=O)Nc3cccc(C(=O)N(C)C)c3)[n+]2[O-])cc1-c1c(C)cccc1C [Compound 119, 4-((3-(dimethylcarbamoyl)phenyl)carbamoyl)-2-(6-methoxy-2′,6′-dimethyl-[1,1′-biphenyl]-3-yl)-5-methyl-1H-imidazole 3-oxide]
IC50 (human ACSS2 protein): < 1 nM | ACSS1 Biochemical IC50 (nM) (human ACSS1 protein): Inactive | IC50 [1]: < 20 nM

CNC(=O)c1cccc(NC(=O)c2c(C)[nH]c(-c3cc(-c4c(C)cccc4C)cc(N(C)C)c3)[n+]2[O-])c1 [Compound 182, 2-(5-(dimethylamino)-2′,6′-dimethyl-[1,1′-biphenyl]-3-yl)-5-methyl-4-((3-(methylcarbamoyl)phenyl)carbamoyl)-1H-imidazole 3-oxide]
IC50 (human ACSS2 protein): < 1 nM | ACSS1 Biochemical IC50 (nM) (human ACSS1 protein): Inactive | IC50 [1]: < 20 nM

CNC(=O)c1cccc(NC(=O)c2c(C)[nH]c(-c3ccnc(-c4c(C)cccc4C)c3)[n+]2[O-])c1 [Compound 178, 2-(2-(2,6-dimethylphenyl)pyridin-4-yl)-5-methyl-4-((3-(methylcarbamoyl)phenyl)carbamoyl)-1H-imidazole 3-oxide]
IC50 (human ACSS2 protein): < 1 nM | IC50 (human ACSS1 protein; read-out: ACSS1 Biochemical IC50): > 30 nM | IC50 [1]: < 20 nM

CC(=O)c1cc(-c2c(C)cccc2C)cc(-c2[nH]c(C)c(C(=O)Nc3cccc(C(F)(F)C4CC4)c3)[n+]2[O-])c1 [Compound 142, 2-(5-acetyl-2′,6′-dimethyl-[1,1′-biphenyl]-3-yl)-4-((3-(cyclopropyldifluoromethyl)phenyl)carbamoyl)-5-methyl-1H-imidazole 3-oxide]
IC50 (human ACSS2 protein): < 1 nM | ACSS1 Biochemical IC50 (nM) (human ACSS1 protein): Inactive | IC50 [1]: > 50 nM

CNC(=O)c1cccc(NC(=O)c2c(C)[nH]c(-c3ccc(OC)c(-c4c(C)cccc4C)n3)[n+]2[O-])c1 [Compound 186, 2-(6-(2,6-dimethylphenyl)-5-methoxypyridin-2-yl)-5-methyl-4-((3-(methylcarbamoyl)phenyl)carbamoyl)-1H-imidazole 3-oxide]
IC50 (human ACSS2 protein): < 1 nM | ACSS1 Biochemical IC50 (nM) (human ACSS1 protein): Inactive | IC50 [1]: < 20 nM

CCC(F)(F)c1cccc(NC(=O)c2c(C)[nH]c(-c3cc(-c4c(C)cccc4C)c(OC)cc3O)[n+]2[O-])c1 [Compound 123, 4-((3-(1,1-difluoropropyl)phenyl)carbamoyl)-2-(4-hydroxy-6-methoxy-2′,6′-dimethyl-[1,1′-biphenyl]-3-yl)-5-methyl-1H-imidazole 3-oxide]
IC50 (human ACSS2 protein): < 1 nM | ACSS1 Biochemical IC50 (nM) (human ACSS1 protein): Inactive | IC50 [1]: < 20 nM

CCC(F)(F)c1cccc(NC(=O)c2c(C)[nH]c(-c3cc(-c4c(C)cccc4C)c(OC)cc3N)[n+]2[O-])c1 [Compound 124]
IC50 (human ACSS2 protein): < 1 nM | ACSS1 Biochemical IC50 (nM) (human ACSS1 protein): Inactive | IC50 [1]: > 50 nM
